Marks after values point to notes of the source that are not given here.
Tests used:
[1] = system: C57BL/6 male DIO mice; assay: Body weight and food intake in vivo study in diet induced obese (DIO) mice; design: species or system mouse; conditions: for Body Weight Change (%) Mean / Food Intake - 24 Hours (g) Mean: 1 mg/kg subcutaneous twice daily
Experimental: Compound 7.1 was assessed in a body weight and food intake in vivo study in diet induced obese (DIO) mice. C57BL/6 male DIO mice were utilized, that were 17 weeks of age on arrival. Animals were pre-conditioned on a high-fat diet for 11 weeks by Jackson Labs. […] Animals were single housed within a limited access rodent facility, and provided ad libitum with a commercial rodent diet and free access to drinking water. Animals were randomized into five groups, a vehicle group, three dose levels of compound 7.1 (3 mg/kg, 10 mg/kg and 30 mg/kg), and Peptide A, a positive control cyclic peptide of the formula Ac-Arg-cyclo(Om-Asn-D-Phe-Arg-Trp-Glu)-NH2. Following three days of sham dosing, animals were dosed for three days, with vehicle or Compound 7.1 dosed orally once daily at within one hour of lights out in the AM, and Peptide A dosed by subcutaneous injection twice daily within one hour before lights out and six hours after lights out. Body weights were measured one hour prior to lights out, and feed weights were measured both one hour prior to lights out and six hours post lights out.
• *p<0.05 vs. sham (vehicle control) using two-way ANOVA followed by Dunnett's post-test. • **p<0.01 vs sham (vehicle control) using two-way ANOVA followed by Dunnett's post-test.

[2] = biological target: T1, MC4r (Homo sapiens, UniProt P32245); assay: Functional cAMP study in human MC4r expression system approximating maximal physiologic receptor densities; assay type: cell-based; design: host or cells: TREx-293 transfected with pcDNA4/TO/MC4R
Experimental: Assay for Agonist Activity. Accumulation of intracellular cAMP was examined as a measure of the ability of the peptides of the present invention to elicit a functional response in HEK-293 cells that express MC4-R. Confluent HEK-293 cells that express recombinant hMC4-R were detached from culture plates by incubation in enzyme-free cell dissociation buffer. Dispersed cells were suspended in Hanks' Balanced Salt Solution containing 10 mM HEPES (pH 7.5), 1 mM MgCl2, 1 mM glutamine, 0.5% albumin and 0.3 mM 3-isobutyl-1-methyl-xanthine (IBMX), a phosphodiesterase inhibitor. The cells were plated in 96-well plates at a density of 0.5×10^5 cells per well and pre-incubated for 10 minutes. Cells were exposed for 15 minutes at 37° C. to peptides of the present invention dissolved in DMSO (final DMSO concentration of 1%) at a concentration range of 0.05-5000 nM in a total assay volume of 200 μL. NDP-α-MSH was used as the reference agonist. cAMP levels were determined by an HTRF® cAMP cell-based assay system from Cisbio Bioassays utilizing cryptate-labeled anti-cAMP and d2-labeled cAMP, with plates read on a Perkin-Elmer Victor plate reader at […]. Data analysis was performed by nonlinear regression analysis with Graph-Pad Prism® software. The maximum efficacies of the test peptides of the present invention were compared to that achieved by the reference melanocortin agonist NDP-αMSH. […]

[3] = biological target: T1, MC4r; assay: Competitive inhibition binding assay, MC4r; design: expressed in transfected cells; host or cells: HEK-293 (membrane homogenates); conditions: binding studies
Experimental: A competitive inhibition binding assay is performed using membrane homogenates prepared from HEK-293 cells that express recombinant hMC1ra, hMC4r, hMC3r, or hMC5r, and from B16-F10 mouse melanoma cells (containing endogenous MC1r). In the examples that follow, all values are for human recombinant receptors unless otherwise noted. Assays are performed in 96 well GF/B Millipore multiscreen filtration plates (MAFB NOB10) pre-coated with 0.5% bovine serum albumin (Fraction V). […] After incubation for 60 to 90 minutes at 37° C., the assay mixture is filtered and the membranes washed three times with ice-cold buffer. Filters are dried and counted in a gamma counter for bound radioactivity.
Maximal specific binding (100%) is defined as the difference in radioactivity (cpm) bound to cell membranes in the absence and presence of 1 μM NDP-α-MSH. […] Each assay is conducted in duplicate or triplicate and the actual mean values are described, with results less than 0% reported as 0%. Ki values for test compounds are determined using Graph-Pad Prism® curve-fitting software.
Competitive Binding Assay Using Eu-NDP-α-MSH. […] The plates were incubated on a shaker for 15 minutes and read at 340 nm excitation and 615 nm emission wavelengths. […] Ki values were determined by curve-fitting with Graph-Pad Prism® software using a one-site fixed-slope competition binding model.

T1 sequence (P32245 whole entry): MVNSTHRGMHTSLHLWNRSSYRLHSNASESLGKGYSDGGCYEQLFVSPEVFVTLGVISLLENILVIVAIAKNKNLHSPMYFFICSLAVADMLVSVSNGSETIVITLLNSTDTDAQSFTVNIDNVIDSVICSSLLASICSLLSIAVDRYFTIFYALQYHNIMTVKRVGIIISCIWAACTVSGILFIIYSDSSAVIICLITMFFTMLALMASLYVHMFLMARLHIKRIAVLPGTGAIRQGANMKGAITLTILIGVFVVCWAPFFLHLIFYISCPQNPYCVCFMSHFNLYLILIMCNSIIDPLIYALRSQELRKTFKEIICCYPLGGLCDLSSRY

EC50 [2] | Emax ([2]; read-out: relative efficacy, compared to NDP-α-MSH) | Ki [3] | Molecule | Body Weight Change (%) Mean ([1]; Day 0) | Food Intake - 24 Hours (g) Mean ([1]; Day 0, 24 hours post lights out) | Body Weight Change (%) Mean ([1]; Day 1) | Food Intake - 24 Hours (g) Mean ([1]; Day 1, 24 hours post lights out) | Body Weight Change (%) Mean ([1]; Day 2) | Food Intake - 24 Hours (g) Mean ([1]; Day 2, 24 hours post lights out) | Body Weight Change (%) Mean ([1]; Day 3) | feed intake ([1]; 1 mg/kg, 24 hours post lights out, entirety of the study, vs sham) | body weight ([1]; two times daily 1 mg/kg, throughout the study)
 |  |  | Ac-Arg-cyclo(Om-Asn-D-Phe-Arg-Trp-Glu)-NH2 [Peptide A, reference compound] | 0% | 0.99** g | −5.69** % | 1.10** g | −8.37** % | 1.67** g | −8.78** % | significantly inhibited feed intake | decreased animal body weights
5 nM | 19% | 5 nM | CNC(C)(C)C(=O)N[C@H](Cc1ccc(Cl)cc1)C(=O)N1CCN(N(CC(C)C)C2CCN(C(C)=O)CC2)CC1 [Compound 7.9, N-[(1R)-2-[4-[(1-acetyl-4-piperidyl)-isobutyl-amino]piperazin-1-yl]-1-[(4-chlorophenyl)methyl]-2-oxo-ethyl]-2-methyl-2-(methylamino)propanamide] |  |  |  |  |  |  |  |  | 

Reference: patent US12459894B2, “Orally active melanocortin receptor-4 compounds” (Palatin Technologies, Inc., priority 2018, dated 2025)
